Data on 36 compounds can be found in the NIST ThermoML archive (doi:10.1016/j.jct.2014.06.006).

Numbers after ± are expanded uncertainties.

The nature of this data set: activity coefficient (dimensionless); of the first substance listed, at infinite dilution; xn = mol fraction of the nth substance listed. As to conditions: 298 K; 238 kPa; Liquid; Chromatography; x1 = 0.
Regarding `CC1CCCC1` [methylcyclopentane] + COCCO, the activity coefficient is 11 ± 0.7.
As to `Fc1ccccc1` [fluorobenzene] + CC(O)CO, the activity coefficient stood at 8.5 ± 0.5.
Take `Cc1ccc(C)cc1` [1,4-dimethylbenzene] + CC(O)CO: the activity coefficient was found to be 26.7 ± 3.1.
Turning to `Fc1ccccc1` [fluorobenzene] + COCCO, the activity coefficient was 1.8 ± 0.2.
Consider `CC1CCCCC1` [methylcyclohexane] + COCCO, for which the activity coefficient came to 14.7 ± 0.9.
For `CCc1ccccc1` [ethylbenzene] + COCCO, the activity coefficient came out at 4.9 ± 0.3.
In the case of `Cc1cccc(C)c1` [1,3-dimethylbenzene] + COCCO, the activity coefficient was determined as 5.2 ± 0.3.
`C1CCCCCCC1` [cyclooctane] + COCCO: the activity coefficient stood at 20.1 ± 0.9.
With `Cc1ccc(C(C)C)cc1` [1-(1-methylethyl)-4-methylbenzene] + COCCO, the activity coefficient stood at 10 ± 0.5.
On to `c1ccc2ccccc2c1` [naphthalene] + CC(O)CO, for which the activity coefficient stood at 136 ± 21.
Consider `Cc1ccccc1C` [1,2-dimethylbenzene] + CC(O)CO, for which the activity coefficient amounted to 26.3 ± 3.1.
In the case of `CCCCCCCCCCC` [undecane] + COCCO, the activity coefficient stood at 94.6 ± 3.7.
For the compound `c1ccccc1` [benzene] + CC(O)CO, the activity coefficient was 11.8 ± 1.1.
In the case of `Clc1ccccc1` [chlorobenzene] + CC(O)CO, the activity coefficient was found to be 13.6 ± 1.1.
In the case of `Brc1ccccc1` [bromobenzene] + COCCO it was 3.5 ± 0.2; in that of `CCCCCC` [hexane] + COCCO, 16.3 ± 0.8.
As for `Cc1ccc(C)cc1` [1,4-dimethylbenzene] + COCCO, the activity coefficient came out at 5.2 ± 0.3.
In the case of `C1CCCCC1` [cyclohexane] + COCCO it was 11.4 ± 0.7.
For the compound `Cc1ccccc1` [toluene] + COCCO, the activity coefficient came out at 3.6 ± 0.4.
For `Cc1cccc(C)c1` [1,3-dimethylbenzene] + CC(O)CO, the activity coefficient was 28.4 ± 2.2.
With `CCCCCC` [hexane] + CC(O)CO, the activity coefficient was 63 ± 20.
Take `C=CC1CC=CCC1` (stereo unspecified) [4-ethenylcyclohexene] + COCCO: the activity coefficient was 8.6 ± 0.3.
Turning to `CCCCCCCCCC` [decane] + COCCO, the activity coefficient was determined as 56.8 ± 2.2.
Turning to `Cc1ccccc1C` [1,2-dimethylbenzene] + COCCO, the activity coefficient was determined as 5 ± 0.3.
Consider `CCCCCCCCC` [nonane] + COCCO, for which the activity coefficient stood at 41.4 ± 1.7.
As to `CCc1ccccc1` [ethylbenzene] + CC(O)CO, the activity coefficient was 26.2 ± 3.1.
On to `c1ccc2ccccc2c1` [naphthalene] + COCCO, for which the activity coefficient worked out at 11 ± 2.
`CCCCCCC` [heptane] + CC(O)CO: the activity coefficient is 109 ± 30.
With `C=CCCCCC=C` [1,7-octadiene] + COCCO, the activity coefficient amounted to 10.6 ± 0.5.
In the case of `Clc1ccccc1` [chlorobenzene] + COCCO, the activity coefficient stood at 2.9 ± 0.4.
On to `C1=CCCCC1` [cyclohexene] + COCCO, for which the activity coefficient came out at 7.4 ± 0.3.
As for `CCCCCCCC` [octane] + COCCO, the activity coefficient was 27.9 ± 1.
Take `c1ccccc1` [benzene] + COCCO: the activity coefficient was determined as 2.4 ± 0.4.
For `Cc1ccccc1` [toluene] + CC(O)CO, the activity coefficient turned out to be 17 ± 2.1.
Take `CCCCCCC` [heptane] + COCCO: the activity coefficient came to 22.4 ± 0.9.
Turning to `CCCCCCCC` [octane] + CC(O)CO, the activity coefficient amounted to 150 ± 40.
